Test system: relapsed/refractory peripheral T-cell lymphoma (PTCL)
Assay: Clinical trials on peripheral T-cell lymphoma
Assay type: in vivo, human
Conditions: for SPD (sum of products of maximum vertical diameters of multiple lesions): baseline 717 mm
Experimental: 2.1 Administration Regimen • Method of administration: orally administered once daily, 15 mg or 20 mg each time, with 21 consecutive days of administration as one cycle. • Drug: tablet of the compound of formula I, 5 mg or 20 mg.
2.2 Enrollment Criteria • 1) Histopathologically confirmed relapsed/refractory peripheral T-cell lymphoma (PTCL), including four subtypes: peripheral T-cell lymphoma, not otherwise specified (PTCL-NOS); angioimmunoblastic T-cell lymphoma (AITL); anaplastic large cell lymphoma (ALCL); and extranodal NK/T cell lymphoma (NKTCL), nasal type; • 2) Has previously received at least first-line systemic treatment regimen, had disease progression during or after the most recent treatment, or had no objective response after adequate treatment; • 3) At least one measurable target lesion present (evaluated according to the Lugano evaluation criteria, 2014 edition); • 4) Age ≥18 years; ECOG (PS) score: 0-2; expected survival time ≥3 months; • 5) Main organ functions in the screening phase meet the following criteria:
Criteria for Blood Routine Examination (No Growth Factor Used or No Blood Transfusion Conducted within 14 Days): • Absolute neutrophil count (ANC)≥1.0×10^9/L; • Lymphocyte count (LYM)≥0.5×10^9/L; • CD4+ T lymphocyte count≥0.2×10^9/L; • Platelet (PLT)≥75×10^9/L (for patients with lymphoma bone marrow infiltration, ≥50×10^9/L acceptable); • Hemoglobin (Hb)≥80 g/L;

[1] = patients with peripheral T-cell lymphoma, oral once daily 15 mg or 20 mg

## COc1ncc(-c2ccc3ncc(OCCN(C)C)c(=O)n3c2)cc1NS(=O)(=O)c1ccc(F)cc1Cl [compound of formula I]
6 enrolled patients with peripheral T-cell lymphoma (3/6), oral once daily 15 mg or 20 mg, 21-day cycle, Lugano 2014 criteria
  objective response rate (ORR): 50%
Case 1, ALK negative anaplastic large cell lymphoma, 15 mg each day, after 2 cycles of medication
  SPD (sum of products of maximum vertical diameters of multiple lesions): 495 mm
Case 1, ALK negative anaplastic large cell lymphoma, 15 mg each day, after 4 cycles
  overall therapeutic effect: complete response (CR)
Case 1, 15 mg each day, after 4 cycles
  new lesion: no new lesion was found
Case 1, 15 mg each day, after 4 cycles of medication, baseline 7.0
  SUVmax of the highest uptake lesion, the left parotid gland area (PET-CT): 1.5
Case 1, 15 mg each day, after 4 cycles of medication
  SPD (sum of products of maximum vertical diameters of multiple lesions): 409 mm
Case 2, extranodal NK/T cell lymphoma, nasal type, 15 mg each day, after 2 cycles of treatment
  therapeutic effect: partial response (PR)
Case 2, extranodal NK/T cell lymphoma, nasal type, 15 mg each day, after 2 cycles of treatment, before treatment 280 mm
  SPD of measurable target lesions (enhanced MRI): 117 mm
Case 2, 15 mg each day, after 2 cycles of treatment
  new lesion: no new lesion was found
Case 2, 15 mg each day, after 2 cycles of treatment, versus 280 mm before treatment
  decrease of SPD: 58.2%
[1]
  safety in treatment: good safety
  therapeutic effect on peripheral T-cell lymphoma: good therapeutic effect
